Legend:
h-GABAA α1β3γ2 = target: T1, h-GABAA α1β3γ2 (Homo sapiens, UniProt P14867+P18507); experiment: Radioligand binding assay, [3H]Flumazenil competition, HEK293F membranes; settings: for γ2/γ1 Selectivity Ratio: Ki α1β3γ2 (nM)/Ki α2β2γ1 (nM); for LogSel: Log[Ki α1β3γ2 (nM)/Ki α2β2γ1 (nM)]
T1 construct: expressed in transfected cells; host or cells: HEK293F cells, membranes
Procedure: The affinity of compounds at GABAA γ2 subunit-containing receptors was measured by competition for [^3H]Flumazenil (81.1 Ci/mmol; Roche) binding to HEK293F cells expressing human (transiently transfected) receptors of composition α1β3γ2.
Harvested pellets from HEK293F cells expressing the different GABAA γ2 receptor subtypes were resuspended in Mannitol Buffer pH 7.2-7.4 and processed as described above for the cells expressing the GABAA γ1 subunit-containing receptors.
Assays were incubated to equilibrium for 1 hour at 4° C. and harvested onto GF/C uni-filters (Packard) by filtration using a Packard harvester and washing with ice-cold wash buffer (50 mM Tris; pH 7.5). After drying, filter-retained radioactivity was detected by liquid scintillation counting. Ki values were calculated using Excel-Fit (Microsoft) and are the means of two determinations.

h-GABAA α2β2γ1 = target: T2, h-GABAA α2β2γ1 (Homo sapiens, UniProt P47869+Q8N1C3); experiment: Two-electrode voltage clamp electrophysiology in Xenopus oocytes, modulation of GABA EC20 current; type: cell-based; set-up: host or cells: Xenopus laevis oocytes, RNA micro-injection; settings: Table 2; for Efficacy (GABA)%: % modulation of GABA EC20 = 100*(Fold increase−1), compound at approx. 30-fold Ki; for Fold increase h-GABA-A α2β2γ1 oocyte @ 30-fold Ki: compound at approx. 30-fold its Ki α2β2γ1, GABA EC20, Xenopus oocytes
T2 sequence (P47869 29-451): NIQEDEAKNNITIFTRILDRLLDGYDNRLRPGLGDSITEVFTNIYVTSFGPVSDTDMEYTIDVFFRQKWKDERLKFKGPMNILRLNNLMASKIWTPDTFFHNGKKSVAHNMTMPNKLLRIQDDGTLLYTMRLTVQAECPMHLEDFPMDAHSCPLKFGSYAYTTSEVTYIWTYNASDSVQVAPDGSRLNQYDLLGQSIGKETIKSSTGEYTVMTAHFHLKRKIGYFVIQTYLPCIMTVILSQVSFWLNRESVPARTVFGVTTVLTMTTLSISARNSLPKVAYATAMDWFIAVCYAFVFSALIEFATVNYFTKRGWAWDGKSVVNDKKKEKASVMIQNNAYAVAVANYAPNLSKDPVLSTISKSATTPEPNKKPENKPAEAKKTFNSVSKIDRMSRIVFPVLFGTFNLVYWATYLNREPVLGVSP
T2 sequence (P47870 25-512 partner limits assumed): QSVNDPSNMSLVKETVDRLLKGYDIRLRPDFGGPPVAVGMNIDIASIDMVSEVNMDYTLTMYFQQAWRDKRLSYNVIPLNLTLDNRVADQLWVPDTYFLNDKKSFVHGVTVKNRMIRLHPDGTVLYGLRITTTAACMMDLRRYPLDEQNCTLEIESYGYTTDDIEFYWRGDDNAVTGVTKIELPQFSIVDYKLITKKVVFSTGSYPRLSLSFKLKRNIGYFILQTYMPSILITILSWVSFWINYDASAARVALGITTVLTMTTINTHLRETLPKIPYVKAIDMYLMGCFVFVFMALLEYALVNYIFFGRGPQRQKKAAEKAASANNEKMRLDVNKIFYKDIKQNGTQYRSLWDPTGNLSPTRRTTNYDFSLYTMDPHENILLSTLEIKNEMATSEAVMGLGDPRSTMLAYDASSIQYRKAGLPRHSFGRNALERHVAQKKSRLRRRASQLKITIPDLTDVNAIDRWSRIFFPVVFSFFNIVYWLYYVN
T2 sequence (Q8N1C3 36-465): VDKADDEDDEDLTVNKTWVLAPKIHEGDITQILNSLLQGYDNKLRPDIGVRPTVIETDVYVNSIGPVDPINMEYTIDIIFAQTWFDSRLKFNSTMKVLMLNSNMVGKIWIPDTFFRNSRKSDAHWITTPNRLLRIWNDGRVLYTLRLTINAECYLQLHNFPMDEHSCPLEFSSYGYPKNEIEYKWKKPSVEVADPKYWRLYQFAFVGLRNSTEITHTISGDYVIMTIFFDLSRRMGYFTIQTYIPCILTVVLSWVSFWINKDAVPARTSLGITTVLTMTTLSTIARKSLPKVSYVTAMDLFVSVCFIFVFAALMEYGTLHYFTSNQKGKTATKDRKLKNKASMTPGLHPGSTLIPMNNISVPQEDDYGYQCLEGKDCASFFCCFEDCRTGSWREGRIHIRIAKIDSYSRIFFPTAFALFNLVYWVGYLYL
Procedure: Xenopus laevis oocytes at maturation stages V-VJ were used for the expression of cloned mRNA encoding GABAA receptor subunits. Oocytes ready for RNA micro-injection were bought from Ecocyte, Castrop-Rauxel, Germany and stored in modified Barth's medium (composition in mM: NaCl 88, KCl 1, NaHCO3 2.4, HEPES 10, MgSO4 0.82, CaNO3 0.33, CaCl2 0.33, pH=7.5) at 20° C. until the experiment.
Oocytes were plated in 96-well plates for microinjection using the Roboinject automated instrument (MultiChannelSystems, Reutlingen, Germany). Approximately 50 nL of an aqueous solution containing the RNA transcripts for the subunits of the desired GABAA receptor subtype was injected into each oocyte. […] Oocytes were kept in modified Barth's medium (composition in mM: NaCl 88, KCl 1, NaHCO3 […], HEPES 10, MgSO4 0.82, CaNO3 0.33, CaCl2 0.33, pH=7.5) at 20° C. until the experiment.
Electrophysiological experiments were performed using the Roboocyte instrument (MultiChannelSystems, Reutlingen, Germany) on days 3 to 5 after the micro-injection of mRNA. During the experiment the oocytes were constantly superfused by a solution containing (in mM) NaCl 90, KCl 1, HEPES 5, MgCl2 1, CaCl2 1 (pH 7.4). Oocytes were impaled by two glass microelectrodes (resistance: 0.5-0.8 MΩ) which were filled with a solution containing KCl 1M+K-acetate 1.5 M and voltage-clamped to −80 mV. The recordings were performed at room temperature using the Roboocyte two-electrode voltage clamp system (Multichannelsystem). After an initial equilibration period of 1.5 min GABA was added for 1.5 min at a concentration evoking approximately 20% of a maximal current response (EC20). After another rest interval of 2.5 min GABA was again added evoking a response of similar amplitude and shape. […] Current traces were recorded at a digitization rate of 10 Hz during and shortly before and after the GABA application.
Each compound and concentration was tested on at least 3 oocytes. Different oocytes were used for different compound concentrations.
For the analysis, the digitized current traces of the first and second GABA response were superimposed and, if necessary, rescaled to equal maximal amplitudes. The ratio between the two responses during the time interval of test compound application was calculated point by point. The extremum of the resulting “ratio trace” was taken as the efficacy (“Fold increase”) of the compound expressed as “% modulation of GABA EC20” (100*(Fold increase−1)).

Compound | Ki (h-GABAA α1β3γ2) [nM] | γ2/γ1 Selectivity Ratio (h-GABAA α1β3γ2; Table 1) | LogSel (h-GABAA α1β3γ2; Table 1) | γ2/γ1 Selectivity Ratio (h-GABAA α1β3γ2; Table 3) | LogSel (h-GABAA α1β3γ2; Table 3) | Efficacy (GABA)% (h-GABAA α2β2γ1) [%] | Fold increase h-GABA-A α2β2γ1 oocyte @ 30-fold Ki (h-GABAA α2β2γ1)
Fc1cccc(F)c1C1=NCc2nnc(-c3cccnn3)n2-c2ccc(Cl)c(Cl)c21 [Example 14, 7,8-dichloro-6-(2,6-difluorophenyl)-1-pyridazin-3-yl-4H-[1,2,4]triazolo[4,3-a][1,4]benzodiazepine] | 299 | 86.6 | 1.94 | 86.6 | 1.9 | 71 | 1.71
Fc1cccc(F)c1C1=NCc2nncn2-c2ccc(Cl)c(Cl)c21 [Example 15, 7,8-dichloro-6-(2,6-difluorophenyl)-4H-[1,2,4]triazolo[4,3-a][1,4]benzodiazepine] | 249 | 28.7 | 1.46 |  |  | 60 | 1.60
Cc1ccc2c(c1Cl)C(c1c(F)cccc1F)=NCc1n[nH]c(=O)n1-2 [Example 16, 7-chloro-6-(2,6-difluorophenyl)-8-methyl-2,4-dihydro-[1,2,4]triazolo[4,3-a][1,4]benzodiazepin-1-one] | 666 | 25.1 | 1.40 |  |  | 68 | 1.68
Cc1ccc2c(c1Cl)C(c1c(F)cccc1F)=NCc1nncn1-2 [Example 17, 7-chloro-6-(2,6-difluorophenyl)-8-methyl-4H-[1,2,4]triazolo[4,3-a][1,4]benzodiazepine] | 493 | 24.9 | 1.40 |  |  | 70 | 1.70
Fc1ccccc1C1=NCc2nnc(-c3ccncn3)n2-c2ccc(Cl)c(Cl)c21 [Example 18, 7,8-dichloro-6-(2-fluorophenyl)-1-pyrimidin-4-yl-4H-[1,2,4]triazolo[4,3-a][1,4]benzodiazepine] | 865 | 40.1 | 1.60 |  |  | 70 | 1.70
COCCc1nnc2n1-c1ccc(Cl)c(Cl)c1C(c1c(F)cccc1F)=NC2 [Example 19, 7,8-dichloro-6-(2,6-difluorophenyl)-1-(2-methoxyethyl)-4H-[1,2,4]triazolo[4,3-a][1,4]benzodiazepine] | 829 | 31.9 | 1.50 |  |  | 72 | 1.72
Cc1ccc2c(c1Cl)C(c1c(F)cccc1F)=NCc1nnc(C)n1-2 [Example 20, 7-chloro-6-(2,6-difluorophenyl)-1,8-dimethyl-4H-[1,2,4]triazolo[4,3-a][1,4]benzodiazepine] | 289 | 12.2 | 1.09 |  |  | 57 | 1.57
CC(F)(F)c1ccc2c(c1Cl)C(c1c(F)cccc1F)=NCc1nncn1-2 [Example 21, 7-chloro-8-(1,1-difluoroethyl)-6-(2,6-difluorophenyl)-4H-[1,2,4]triazolo[4,3-a][1,4]benzodiazepine] | 1790 | 34.5 | 1.54 |  |  | 100 | 2.00
Cc1nnc2n1-c1ccc(C(C)(F)F)c(Cl)c1C(c1c(F)cccc1F)=NC2 [Example 22, 7-chloro-8-(1,1-difluoroethyl)-6-(2,6-difluorophenyl)-1-methyl-4H-[1,2,4]triazolo[4,3-a][1,4]benzodiazepine] | 2790 | 74.6 | 1.87 |  |  | 86 | 1.86
Fc1cccc(F)c1C1=NCc2nncn2-c2ccc(C(F)F)c(Cl)c21 [Example 23, 7-chloro-8-(difluoromethyl)-6-(2,6-difluorophenyl)-4H-[1,2,4]triazolo[4,3-a][1,4]benzodiazepine] | 1200 | 22.0 | 1.34 |  |  | 61 | 1.61

Source: patent publication US20230141603A1, “BENZODIAZEPINE DERIVATIVES AS GABA A GAMMA1 PAM” (Hoffmann-La Roche Inc., priority 2021, published 2023)
